Test results as given in patent publication US20200297790A1, “HERBAL COMPOSITION FOR PREVENTING OR TREATING BENIGN PROSTATIC HYPERPLASIA DISEASE” (priority 2017, published 2020).

Tests used:
[1] = Body weight change in testosterone-induced benign prostatic hyperplasia rat model; assay type: in vivo; details: weighed weekly, five times; extracts 300 mg/kg or finasteride 10 mg/kg orally, 30 days; FIG. 4
Description: (§1) After being acclimated for one week or longer, male SD rats 9 weeks old (weighing 350 g or less) were divided on the basis of weight into (1) a normal group, (2) a benign prostatic hyperplasia-induced and distilled water-administered group (negative control), (3) benign prostatic hyperplasia-induced and composite herbal extract-administered group ([…]), (4) benign prostatic hyperplasia-induced and single Semen Cuscutae herbal extract-administered group (Comparative Example 1-1), (5) benign prostatic hyperplasia-induced and single Semen nelumbinis herbal extract-administered group (Comparative Example 1-2), (6) benign prostatic hyperplasia-induced and single Taraxaci Herba herbal extract-administered group (Comparative Example 1-3), and (7) benign prostatic hyperplasia-induced and finasteride-administered group (positive control). In order to induce benign prostatic hyperplasia, testosterone (dissolved in cotton seed oil) was subcutaneously injected at a dose of 3 mg/kg once/three days for a total of 10 times. For the control, the same amount of cotton seed oil was subcutaneously injected. The composite herbal extract of Preparation Example 1-6 and the single herbal extracts of Comparative Example 1 were each orally administered at a dose of 300 mg/kg once a day for 30 days. […]

[2] = tested on: testosterone-induced benign prostatic hyperplasia rat model; experiment: Size of acinus in excised prostate tissue (H&E staining) of testosterone-induced benign prostatic hyperplasia rat model; assay type: in vivo; details: extracts 300 mg/kg or finasteride 10 mg/kg orally, 30 days
Description: For the control, the same amount of cotton seed oil was subcutaneously injected. […] For the negative control, oral administration of distilled water alone was carried out. From the starting day of the test, the rats were weighed five times in total at regular intervals of one week. On the next day after the final administration and treatment, the rats were sacrificed with carbon dioxide gas. The prostate glands were excised and weighed. % Inhibition of prostate enlargement was expressed according to the following mathematical formula on the basis of the weight measurements. […] Slides of the stained tissues were observed and photographed with an optical microscope. From the images, sizes of the acini in the prostate glands were measured. The reduction in the size of acinus of each experimental group is expressed as a percentage relative to the size of acinus of the normal group.

[3] = tested on: testosterone-induced benign prostatic hyperplasia rat model; experiment: Inhibition of prostate enlargement (prostate weight) in testosterone-induced benign prostatic hyperplasia rat model; assay type: in vivo; details: SD rats, testosterone 3 mg/kg s.c., extracts 300 mg/kg or finasteride 10 mg/kg orally once a day for 30 days
Description: as §1

LNCaP cells = experiment: Inhibition of testosterone-induced proliferation of prostate epithelial cell line (MTT assay); assay type: cell-based, human; details: 2 μM testosterone alone, 72 hours
Description: LNCaP cells, which are the prostate epithelial cells derived from human prostate cancer, were seeded at a density of 1×10^5 cells/well in 24-well plates containing an RPMI medium (Gibco U.S.A) and stabilized overnight. Then, the cells were cultured for 24 hours in a serum-free medium. After removal of the medium, the cells were incubated for 72 hours with 2 μM of testosterone (Tes) alone or in combination with 50, 100, or 200 μg/ml of the composite herbal extract of Preparation Example 1-6 or 4. Thereafter, growth of the cells was evaluated by MTT assay. Cell proliferation data were expressed as percentages of the cell counts relative to that of the Tes-treated group.
LNCaP cells, which are the prostate epithelial cells derived from human prostate cancer, were seeded at a density of 1×10^5 cells/well in 24-well plates containing an RPMI medium (Gibco, U.S.A) and stabilized overnight. […] Thereafter, growth of the cells was evaluated by MTT assay. Cell proliferation data were expressed as percentages of the cell counts relative to that of the Tes-treated group.
LNCaP cells, which are the prostate epithelial cells derived from human prostate cancer, were seeded at a density of 1×10^5 cells/well in 24-well plates containing an RPMI medium (Gibco, U.S.A) and stabilized overnight. […] Thereafter, growth of the cells was evaluated by MTT assay. […]

Compound	body weight difference among testosterone-treated groups [1]	Reductive effect on size of acinus (%) [2]	Size of acinus (%) ([2]; percentage relative to normal group)	Prostate weight/body weight [3]	% Inhibition of prostate enlargement ([3]; vs negative control)	growth of prostate epithelial cells when treated with testosterone (LNCaP cells)
CC(C)(C)NC(=O)[C@H]1CC[C@H]2[C@@H]3CC[C@H]4NC(=O)C=C[C@]4(C)[C@H]3CC[C@]12C [Finasteride]	significant differences in body weight were not observed	42%	279 ± 10%	1.31 ± 0.10 g/kg	43%	–
C[C@]12CC[C@H]3[C@@H](CCC4=CC(=O)CC[C@@]43C)[C@@H]1CC[C@@H]2O [testosterone]	–	–	–	–	–	about 62.5%
